Reference: PubChem BioAssay AID272 (DTP/NCI, 2004)
“And” between values parts separate entries of the source, which are not always exact repeats. Equal entries are not always repeated. Records with an inconclusive call do not appear.

Tested on: Lewis lung carcinoma i.m., BDF1 mice, T/C %
Test: NCI In Vivo Anticancer Drug Screen. Data for tumor model Lewis Lung Carcinoma (intramuscular) in B6D2F1 (BDF1) mice
How it was run: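 Value is the ratio of a treated-group measurement (T) to the matching vehicle-control measurement (C), using either survival or tumour size in mice bearing transplanted tumours.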

[1] = endpoint: mean tumor weight (est.), dose: 25.0 mg/kg/injection, schedule: Q01DX011 (ip), vehicle: saline with Tween-80, higher = larger tumour
[2] = endpoint: mean tumor weight (est.), dose: 50.0 mg/kg/injection, schedule: Q01DX011 (ip), vehicle: saline with Tween-80, higher = larger tumour
[3] = endpoint: median survival time, dose: 25.0 mg/kg/injection, schedule: Q01DX011 (ip), vehicle: saline with Tween-80, higher = longer survival
[4] = endpoint: median survival time, dose: 50.0 mg/kg/injection, schedule: Q01DX011 (ip), vehicle: saline with Tween-80, higher = longer survival

Nc1nc2c(c(=O)[nH]1)NC(CCNc1ccc(C(=O)NC(CCC(=O)O)C(=O)O)cc1)CN2 (stereo unspecified)
T/C (endpoint: mean tumor weight (est.), dose: 3.13 mg/kg/injection, schedule: Q01DX011 (ip), vehicle: other, higher = larger tumour): 112 % of control
T/C (endpoint: mean tumor weight (est.), dose: 6.25 mg/kg/injection, schedule: Q01DX011 (ip), vehicle: other, higher = larger tumour): 81 % of control
T/C (endpoint: mean tumor weight (est.), dose: 12.5 mg/kg/injection, schedule: Q01DX011 (ip), vehicle: other, higher = larger tumour): 104 % of control
T/C (endpoint: mean tumor weight (est.), dose: 25.0 mg/kg/injection, schedule: Q01DX011 (ip), vehicle: other, higher = larger tumour): 99 % of control
T/C (endpoint: mean tumor weight (est.), dose: 50.0 mg/kg/injection, schedule: Q01DX011 (ip), vehicle: other, higher = larger tumour): 68 % of control
T/C (endpoint: mean tumor weight (est.), dose: 100.0 mg/kg/injection, schedule: Q01DX011 (ip), vehicle: other, higher = larger tumour): 63 % of control
T/C (endpoint: mean tumor weight, dose: 6.25 mg/kg/injection, schedule: Q01DX011 (ip), vehicle: other, higher = larger tumour): 100 % of control
T/C (endpoint: mean tumor weight, dose: 25.0 mg/kg/injection, schedule: Q01DX011 (ip), vehicle: other, higher = larger tumour): 101 % of control
T/C (endpoint: mean tumor weight, dose: 50.0 mg/kg/injection, schedule: Q01DX011 (ip), vehicle: other, higher = larger tumour): 78 % of control
T/C (endpoint: mean tumor weight, dose: 100.0 mg/kg/injection, schedule: Q01DX011 (ip), vehicle: other, higher = larger tumour): 68 % of control
T/C (endpoint: median survival time, dose: 6.25 mg/kg/injection, schedule: Q01DX011 (ip), vehicle: other, higher = longer survival): 94 % of control
T/C (endpoint: median survival time, dose: 12.5 mg/kg/injection, schedule: Q01DX011 (ip), vehicle: other, higher = longer survival): 103 % of control
T/C (endpoint: median survival time, dose: 25.0 mg/kg/injection, schedule: Q01DX011 (ip), vehicle: other, higher = longer survival): 98 % of control
T/C (endpoint: median survival time, dose: 100.0 mg/kg/injection, schedule: Q01DX011 (ip), vehicle: other, higher = longer survival): 108 % of control

Nc1nc(SCc2ccccc2)c2[nH]cnc2n1
T/C (endpoint: mean tumor weight (est.), dose: 0.39 mg/kg/injection, schedule: Q01DX011 (ip), vehicle: saline, higher = larger tumour): 86 % of control
T/C (endpoint: mean tumor weight (est.), dose: 0.78 mg/kg/injection, schedule: Q01DX011 (ip), vehicle: saline, higher = larger tumour): 91 % of control
T/C (endpoint: mean tumor weight (est.), dose: 1.56 mg/kg/injection, schedule: Q01DX011 (ip), vehicle: saline, higher = larger tumour): 78 % of control
T/C (endpoint: mean tumor weight (est.), dose: 6.25 mg/kg/injection, schedule: Q01DX011 (ip), vehicle: saline, higher = larger tumour): 70 % of control
T/C (endpoint: mean tumor weight, dose: 0.78 mg/kg/injection, schedule: Q01DX011 (ip), vehicle: Klucel (hydroxypropylcellulose) (HPC), higher = larger tumour): 105 % of control
T/C (endpoint: mean tumor weight, dose: 1.56 mg/kg/injection, schedule: Q01DX011 (ip), vehicle: Klucel (hydroxypropylcellulose) (HPC), higher = larger tumour): 92 % of control
T/C (endpoint: mean tumor weight, dose: 3.12 mg/kg/injection, schedule: Q01DX011 (ip), vehicle: Klucel (hydroxypropylcellulose) (HPC), higher = larger tumour): 87 % of control
T/C (endpoint: median survival time, dose: 0.39 mg/kg/injection, schedule: Q01DX011 (ip), vehicle: saline, higher = longer survival): 103 % of control
T/C (endpoint: median survival time, dose: 1.56 mg/kg/injection, schedule: Q01DX011 (ip), vehicle: Klucel (hydroxypropylcellulose) (HPC), higher = longer survival): 102 % of control
T/C (endpoint: median survival time, dose: 1.56 mg/kg/injection, schedule: Q01DX011 (ip), vehicle: saline, higher = longer survival): 96 % of control
T/C (endpoint: median survival time, dose: 6.25 mg/kg/injection, schedule: Q01DX011 (ip), vehicle: saline, higher = longer survival): 111 % of control

Cc1n(Cc2ccccc2)c2c([n+]1C)C(=O)c1ccccc1C2=O
T/C (endpoint: mean tumor weight (est.), dose: 0.13 mg/kg/injection, schedule: Q01DX011 (ip), vehicle: saline with Tween-80, higher = larger tumour): 48 % of control
T/C (endpoint: mean tumor weight (est.), dose: 0.25 mg/kg/injection, schedule: Q01DX011 (ip), vehicle: saline with Tween-80, higher = larger tumour): 50 % of control
T/C (endpoint: mean tumor weight (est.), dose: 0.5 mg/kg/injection, schedule: Q01DX011 (ip), vehicle: saline with Tween-80, higher = larger tumour): 31 % of control
T/C (endpoint: mean tumor weight (est.), dose: 1.0 mg/kg/injection, schedule: Q01DX011 (ip), vehicle: saline with Tween-80, higher = larger tumour): 36 % of control
T/C (endpoint: mean tumor weight (est.), dose: 2.0 mg/kg/injection, schedule: Q01DX011 (ip), vehicle: saline with Tween-80, higher = larger tumour): 43 % of control
T/C (endpoint: median survival time, dose: 0.13 mg/kg/injection, schedule: Q01DX011 (ip), vehicle: saline with Tween-80, higher = longer survival): 110 % of control
T/C (endpoint: median survival time, dose: 0.25 mg/kg/injection, schedule: Q01DX011 (ip), vehicle: saline with Tween-80, higher = longer survival): 100 % of control
T/C (endpoint: median survival time, dose: 0.5 mg/kg/injection, schedule: Q01DX011 (ip), vehicle: saline with Tween-80, higher = longer survival): 106 % of control
T/C (endpoint: median survival time, dose: 1.0 mg/kg/injection, schedule: Q01DX011 (ip), vehicle: saline with Tween-80, higher = longer survival): 89 % of control
T/C (endpoint: median survival time, dose: 2.0 mg/kg/injection, schedule: Q01DX011 (ip), vehicle: saline with Tween-80, higher = longer survival): 89 % of control

Cc1c(C(=O)O)nc(/C=C/C(=O)O)[nH]c1=O
T/C (endpoint: median survival time, dose: 4.0 mg/kg/injection, schedule: Q01DX009 (ip), vehicle: water, higher = longer survival): 105 % of control
T/C (endpoint: median survival time, dose: 8.0 mg/kg/injection, schedule: Q01DX009 (ip), vehicle: water, higher = longer survival): 108 % of control
T/C (endpoint: median survival time, dose: 16.0 mg/kg/injection, schedule: Q01DX009 (ip), vehicle: water, higher = longer survival): 108 % of control

CN(Cc1cnc2nc(N)nc(N)c2n1)c1ccc(C(=O)N[C@@H](CCC(=O)O)C(=O)O)cc1
T/C (endpoint: mean tumor weight, dose: 0.23 mg/kg/injection, schedule: Q01DX009 (ip), vehicle: sodium bicarbonate, higher = larger tumour): 107 % of control
T/C (endpoint: mean tumor weight, dose: 0.31 mg/kg/injection, schedule: Q01DX011 (ip), vehicle: other, higher = larger tumour): 86 % of control and 100 % of control and 109 % of control
T/C (endpoint: mean tumor weight, dose: 0.39 mg/kg/injection, schedule: Q01DX009 (ip), vehicle: sodium bicarbonate, higher = larger tumour): 71 % of control
T/C (endpoint: mean tumor weight, dose: 0.65 mg/kg/injection, schedule: Q01DX009 (ip), vehicle: sodium bicarbonate, higher = larger tumour): 48 % of control and 69 % of control
T/C (endpoint: mean tumor weight, dose: 1.08 mg/kg/injection, schedule: Q01DX009 (ip), vehicle: sodium bicarbonate, higher = larger tumour): 53 % of control and 59 % of control
T/C (endpoint: mean tumor weight, dose: 1.8 mg/kg/injection, schedule: Q01DX009 (ip), vehicle: sodium bicarbonate, higher = larger tumour): 40 % of control and 44 % of control
T/C (endpoint: mean tumor weight, dose: 2.5 mg/kg/injection, schedule: Q01DX011 (ip), vehicle: other, higher = larger tumour): 94 % of control
T/C (endpoint: mean tumor weight, dose: 23.0 mg/kg/injection, schedule: Q04DX003 (ip), vehicle: sodium bicarbonate, higher = larger tumour): 57 % of control
T/C (endpoint: mean tumor weight, dose: 39.0 mg/kg/injection, schedule: Q04DX003 (ip), vehicle: sodium bicarbonate, higher = larger tumour): 33 % of control
T/C (endpoint: mean tumor weight, dose: 65.0 mg/kg/injection, schedule: Q04DX003 (ip), vehicle: sodium bicarbonate, higher = larger tumour): 13 % of control
T/C (endpoint: median survival time, dose: 0.12 mg/kg/injection, schedule: Q01DX011 (ip), vehicle: sodium bicarbonate, higher = longer survival): 123 % of control
T/C (endpoint: median survival time, dose: 0.23 mg/kg/injection, schedule: Q01DX009 (ip), vehicle: sodium bicarbonate, higher = longer survival): 90 % of control and 93 % of control
T/C (endpoint: median survival time, dose: 0.25 mg/kg/injection, schedule: Q01DX011 (ip), vehicle: sodium bicarbonate, higher = longer survival): 112 % of control and 122 % of control
T/C (endpoint: median survival time, dose: 0.39 mg/kg/injection, schedule: Q01DX009 (ip), vehicle: sodium bicarbonate, higher = longer survival): 118 % of control and 121 % of control
T/C (endpoint: median survival time, dose: 0.5 mg/kg/injection, schedule: Q01DX011 (ip), vehicle: sodium bicarbonate, higher = longer survival): 108 % of control and 109 % of control
T/C (endpoint: median survival time, dose: 1.0 mg/kg/injection, schedule: Q01DX011 (ip), vehicle: sodium bicarbonate, higher = longer survival): 107 % of control
T/C (endpoint: median survival time, dose: 2.0 mg/kg/injection, schedule: Q01DX011 (ip), vehicle: sodium bicarbonate, higher = longer survival): 121 % of control
T/C (endpoint: median survival time, dose: 3.0 mg/kg/injection, schedule: Q01DX009 (ip), vehicle: sodium bicarbonate, higher = longer survival): 32 % of control
T/C (endpoint: median survival time, dose: 14.0 mg/kg/injection, schedule: Q04DX003 (ip), vehicle: sodium bicarbonate, higher = longer survival): 89 % of control
T/C (endpoint: median survival time, dose: 23.0 mg/kg/injection, schedule: Q04DX003 (ip), vehicle: sodium bicarbonate, higher = longer survival): 90 % of control and 98 % of control
T/C (endpoint: median survival time, dose: 39.0 mg/kg/injection, schedule: Q04DX003 (ip), vehicle: sodium bicarbonate, higher = longer survival): 100 % of control and 112 % of control
T/C (endpoint: median survival time, dose: 65.0 mg/kg/injection, schedule: Q04DX003 (ip), vehicle: sodium bicarbonate, higher = longer survival): 34 % of control and 112 % of control

CCCCn1cnc2c(N)ncnc21
T/C (endpoint: mean tumor weight (est.), dose: 12.5 mg/kg/injection, schedule: Q01DX011 (ip), vehicle: saline with Tween-80, higher = larger tumour): 81 % of control
T/C [1]: 95 % of control
T/C [2]: 77 % of control
T/C (endpoint: median survival time, dose: 12.5 mg/kg/injection, schedule: Q01DX011 (ip), vehicle: saline with Tween-80, higher = longer survival): 93 % of control
T/C [3]: 97 % of control
T/C [4]: 87 % of control

Cc1c(N)nc(C(CC(N)=O)NCC(N)C(N)=O)nc1C(=O)NC(C(=O)NC(C)C(O)C(C)C(=O)NC(C(=O)NCCc1nc(-c2nc(C(=O)NCCCNCCCCN)cs2)cs1)C(C)O)C(OC1OC(CO)C(O)C(O)C1OC1OC(CO)C(O)C(OC(N)=O)C1O)c1cnc[nH]1 (stereo unspecified)
T/C (endpoint: median survival time, dose: 3.9 mg/kg/injection, schedule: Q01DX011 (ip), vehicle: saline, higher = longer survival): 120 % of control
T/C (endpoint: median survival time, dose: 10.8 mg/kg/injection, schedule: Q01DX011 (ip), vehicle: saline, higher = longer survival): 150 % of control
T/C (endpoint: median survival time, dose: 18.0 mg/kg/injection, schedule: Q01DX011 (ip), vehicle: saline, higher = longer survival): 152 % of control

CC1=Nc2ccccc2/C1=C\c1c(C)[nH]c2ccccc12
T/C [1]: 52 % of control
T/C [2]: 68 % of control
T/C (endpoint: mean tumor weight (est.), dose: 100.0 mg/kg/injection, schedule: Q01DX011 (ip), vehicle: saline with Tween-80, higher = larger tumour): 29 % of control
T/C [3]: 104 % of control
T/C [4]: 93 % of control
T/C (endpoint: median survival time, dose: 100.0 mg/kg/injection, schedule: Q01DX011 (ip), vehicle: saline with Tween-80, higher = longer survival): 100 % of control

CN(N=O)C(N)=O
T/C (endpoint: median survival time, dose: 3.12 mg/kg/injection, schedule: Q01DX015 (ip), vehicle: saline, higher = longer survival): 98 % of control
T/C (endpoint: median survival time, dose: 6.25 mg/kg/injection, schedule: Q01DX015 (ip), vehicle: saline, higher = longer survival): 103 % of control
T/C (endpoint: median survival time, dose: 6.25 mg/kg/injection, schedule: Q07DX003 (ip), vehicle: saline, higher = longer survival): 94 % of control
T/C (endpoint: median survival time, dose: 12.5 mg/kg/injection, schedule: Q01DX015 (ip), vehicle: saline, higher = longer survival): 115 % of control
T/C (endpoint: median survival time, dose: 12.5 mg/kg/injection, schedule: Q07DX003 (ip), vehicle: saline, higher = longer survival): 93 % of control
T/C (endpoint: median survival time, dose: 25.0 mg/kg/injection, schedule: Q07DX003 (ip), vehicle: saline, higher = longer survival): 86 % of control
